From ChEMBL document CHEMBL3616434, “Identification of Phenoxyalkylbenzimidazoles with Antitubercular Activity” (J Med Chem, 2015)
In brackets after ≈: the same amount, converted by molar mass. Activity calls are given as the source filed them. No cut-off for these calls is given here.

Legend:
[1] = Cytotoxicity against African green monkey Vero cells after 2 days by luminescent assay; assay type: cell-based; details: chlorocebus sabaeus, read-out: TC50
[2] = tested on: Mycobacterium tuberculosis; assay: Antitubercular activity against Mycobacterium tuberculosis H37Rv ATCC 25618 under aerobic condition after 5 days; assay type: functional; details: H37Rv ATCC 25618, 120 h
[3] = Selectivity index, ratio of TC50 for African green monkey Vero cells to MIC for Mycobacterium tuberculosis H37Rv ATCC 25618
[4] = Thermodynamic equilibrium solubility of the compound using 10 mM DMSO at pH 2; assay type: physicochemical; details: buffer, read-out: Therm_solubility
[5] = Thermodynamic equilibrium solubility of the compound using 10 mM DMSO at pH 6; assay type: physicochemical; details: buffer, read-out: Therm_solubility
[6] = Thermodynamic equilibrium solubility of the compound using 10 mM DMSO at pH 7.4; assay type: physicochemical; details: buffer, read-out: Therm_solubility
[7] = Metabolic stability of the compound in mouse liver microsomes assessed as compound turnover at 2 uM after 30 mins by LC-MS analysis; assay type: ADME; details: read-out: Drug metabolism
[8] = Metabolic stability of the compound in rat liver microsomes assessed as compound turnover at 2 uM after 30 mins by LC-MS analysis; assay type: ADME; details: read-out: Drug metabolism
[9] = Metabolic stability of the compound in human liver microsomes assessed as compound turnover at 2 uM after 30 mins by LC-MS analysis; assay type: ADME; details: read-out: Drug metabolism
[10] = tested on: Mycobacterium tuberculosis; assay: Antitubercular activity against Mycobacterium tuberculosis after 21 to 28 days by serial proportion method; assay type: functional
Escherichia coli = assay: Antimicrobial activity against Escherichia coli after 1 day by serial proportion method; assay type: functional; details: 24 h
Staphylococcus aureus = assay: Antimicrobial activity against Staphylococcus aureus after 2 days by serial proportion method; assay type: functional; details: 48 h
[11] = tested on: Mycolicibacterium smegmatis; assay: Antimicrobial activity against Mycobacterium smegmatis MC2 155 after 5 to 7 days by serial proportion method; assay type: functional; details: str. MC2 155
[12] = tested on: Mycobacterium tuberculosis; assay: Bactericidal activity against replicating Mycobacterium tuberculosis at 1 to 10 times MIC after 21 days; assay type: functional, organism-based
MDCK = assay: Passive permeability of the compound from apical to basolateral direction in MDCK cells at 10 uM in presence of P-gp inhibitor; assay type: ADME, cell-based, Canis lupus familiaris; details: dog
[13] = Fraction unbound in mouse plasma after 4.5 hrs by LC-MS/MS analysis; assay type: ADME, cell-free

| Structure (SMILES) | CC50 at 48 h [1] | MIC [2] | Ratio [3] | further results |
| --- | --- | --- | --- | --- |
| CCc1cc2ccccc2n1CCCCSc1nnc(-c2ccc(Cl)cc2)o1 | > 50 µM | > 20 µM | – | – |
| CCc1nc2ccccc2n1CCCCOc1ccc(Cl)c(F)c1 | 16 µM | 1.6 µM (≈ 0.555 µg/mL) | 10 | – |
| Cc1nc2ccccc2n1CCCOc1ccccc1 | > 50 µM | > 20 µM | – | – |
| CCc1nc2ccccc2n1CCCCOc1cc(C)c(CN2CCOCC2)cc1C | 48 µM | 1.3 µM (≈ 0.548 µg/mL) | 15 | – |
| CCc1nc2ccccc2n1CCCCOc1cccnc1 | > 50 µM | > 20 µM | – | – |
| CC(=O)Nc1nc2ccc(C)cc2n1CCCCOc1ccc(C)c(Cl)c1 | 8.3 µM | 11 µM (≈ 4.24 µg/mL) | 0.8 | – |
| CCc1nc2ccccc2n1CCCCOc1ccc(C)c(C)c1 | 14 µM | 0.3 µM (≈ 0.0967 µg/mL) | 53 | – |
| CCc1nc2ccc(C)cc2n1CCCCOc1ccccc1 | 18 µM | 0.27 µM (≈ 0.0833 µg/mL) | 67 | solubility thermodynamic [4]: 0.63 mg/mL (≈ 2040 µM); solubility thermodynamic [5]: 0.04 mg/mL (≈ 130 µM); solubility thermodynamic [6]: 0.01 mg/mL (≈ 32.4 µM); metabolised at 0.5 h, 2 µM [7]: 99.9%; metabolised at 0.5 h, 2 µM [8]: 99.9%; metabolised at 0.5 h, 2 µM [9]: 98.9% |
| CCc1nc2ccccc2n1CCCCOc1ccccc1 | 21 µM | 1.1 µM (≈ 0.324 µg/mL) | 19 | MIC99 [10]: 5 µM (≈ 1.47 µg/mL); MIC99 (Escherichia coli): > 100 µM; MIC99 (Staphylococcus aureus): > 100 µM; MIC99 [11]: > 100 µM |
| Cc1ccc2nc(C(C)O)n(CCCCOc3ccc(C)c(Cl)c3)c2c1 (centres undefined) | 8.6 µM | 11 µM (≈ 4.1 µg/mL) | 0.8 | – |
| CCc1nc2ccc(C)cc2n1CCCCNc1ccc(C)cc1C | 20 µM | 0.31 µM (≈ 0.104 µg/mL) | 65 | – |
| CCc1nc2ccc(C)cc2n1CCCOc1ccc(C)c(C)c1 | 7.3 µM | 0.22 µM (≈ 0.0709 µg/mL) | 33 | – |
| CN1CCN(c2nc3ccccc3n2CCCCOc2ccccc2)CC1 | – | > 20 µM | – | – |
| CCc1nc2ccccc2n1CCCCSc1ccccc1 | 31 µM | 1.4 µM (≈ 0.435 µg/mL) | 22 | MIC99 [10]: 10 µM (≈ 3.1 µg/mL); MIC99 (Escherichia coli): > 100 µM; MIC99 (Staphylococcus aureus): > 100 µM; MIC99 [11]: > 100 µM |
| Cc1nc2ccccc2n1CCOc1ccc(Cl)cc1 | – | > 20 µM | – | – |
| c1ccc(OCCCCn2cnc3ccccc32)cc1 | – | > 20 µM | – | – |
| CCc1nc2ccccc2n1CCCCOc1c(Cl)cccc1Cl | 13 µM | 20 µM (≈ 7.27 µg/mL) | 1.5 | – |
| CCc1nc2ccc(C)cc2n1CCCNc1ccc(Br)c(C)c1 | 27 µM | 0.052 µM (≈ 0.0201 µg/mL) | 523 | Activity [12]: inactive |
| CCc1nc2ccc(C)cc2n1CCCCNc1ccccc1 | 21 µM | 0.32 µM (≈ 0.0984 µg/mL) | 66 | – |
| CCc1nc2ccccc2n1CCOc1ccc(Cl)cc1 | – | > 20 µM | – | – |
| Nc1nc2ccccc2n1CCCCOc1ccccc1 | – | > 20 µM | – | – |
| CCc1nc2ccccc2n1CCCCOc1ccc(Cl)cc1F | 5.7 µM | 1.5 µM (≈ 0.52 µg/mL) | 3.8 | – |
| c1ccc(OCCCCn2c(-c3ccccc3)nc3ccccc32)cc1 | 19 µM | 16 µM (≈ 5.48 µg/mL) | 1.2 | – |

| Structure (SMILES) | CC50 at 48 h [1] | MIC [2] | Ratio [3] | further results |
| --- | --- | --- | --- | --- |
| CCc1nc2ccccc2n1CCCCOC | > 50 µM | > 20 µM | – | – |
| CCc1nc2ccc(C)cc2n1CCCSc1ccc(C)cc1 | 12 µM | 3.3 µM (≈ 1.07 µg/mL) | 3.6 | – |
| Cc1nc2ccccc2n1CCCCOc1ccccc1 | > 50 µM | > 20 µM | – | – |
| Cc1nc2ccccc2n1CCOc1ccccc1 | – | > 20 µM | – | – |
| CCc1nc2ccccc2n1CCCCOc1ccc(C#N)cc1 | 27 µM | 16 µM (≈ 5.11 µg/mL) | 1.7 | – |
| Clc1nc2ccccc2n1CCCCOc1ccccc1 | – | > 20 µM | – | – |
| CCc1nc2ccccc2n1CCCCOc1ccc(C)cc1 | 14 µM | 0.15 µM (≈ 0.0463 µg/mL) | 93 | – |
| CCc1nc2cnccc2n1CCCCOc1ccccc1 | – | > 20 µM | – | – |
| c1ccc(OCCCCn2ncc3ccccc32)cc1 | > 50 µM | > 20 µM | – | – |
| Cc1ccc2nc(C(C)O)n(CCCCOc3ccccc3)c2c1 (centres undefined) | – | 20 µM (≈ 6.49 µg/mL) | – | – |
| CCc1nc2ccncc2n1CCCCOc1ccccc1 | – | > 20 µM | – | – |
| CCc1nc2ccccc2n1CCCCOc1ccccc1Cl | 16 µM | 0.68 µM (≈ 0.224 µg/mL) | 23 | – |
| CCc1nc2ccc(C)cc2n1CCCCNc1ccc(C)cc1 | 20 µM | 0.15 µM (≈ 0.0482 µg/mL) | 133 | – |
| CCc1cc2ccccc2n1CCCCOc1ccc(C)c(Cl)c1 | – | > 20 µM | – | – |
| CCc1nc2ccccc2n1CCCCOc1ccc(Cl)cc1 | 14 µM | 1.5 µM (≈ 0.493 µg/mL) | 9.3 | – |
| CCc1nc2ccccc2n1CCCCOc1ccccc1C(C)C | 19 µM | 20 µM (≈ 6.73 µg/mL) | 0.7 | – |
| CCc1nc2ccccc2n1CCCCOc1ccc2sc(C)nc2c1 | 21 µM | 1.5 µM (≈ 0.548 µg/mL) | 14 | – |
| CCc1nc2ccccc2n1CCCCNc1ccccc1 | 42 µM | 0.47 µM (≈ 0.138 µg/mL) | 89 | solubility thermodynamic [4]: 0.61 mg/mL (≈ 2080 µM); permeability (MDCK): 21.5%; solubility thermodynamic [5]: 0.01 mg/mL (≈ 34.1 µM); fraction unbound at 4.5 h [13]: 0.045; solubility thermodynamic [6]: < 0.001 mg/mL; metabolised at 0.5 h, 2 µM [7]: 99.9%; metabolised at 0.5 h, 2 µM [8]: 99.9%; metabolised at 0.5 h, 2 µM [9]: 90.6%; Activity [12]: inactive |
| CCc1nc2ccccc2n1CCCCOc1cccc(Cl)c1 | 22 µM | 0.88 µM (≈ 0.289 µg/mL) | 25 | – |
| CCc1nc2cc(C#N)ccc2n1CCCCOc1ccccc1 | > 20 µM | > 20 µM | >20 | – |
| CCc1nc2cc(OC)ccc2n1CCCCOc1ccccc1 | – | > 20 µM | – | – |
| CCc1nc2ccccc2n1CCCCOc1ccc(OC)cc1 | 21 µM | 1.2 µM (≈ 0.389 µg/mL) | 27 | – |
| c1ccc(OCCCCn2c(N3CCOCC3)nc3ccccc32)cc1 | 20 µM | 20 µM (≈ 7.03 µg/mL) | 20 | – |

| Structure (SMILES) | CC50 at 48 h [1] | MIC [2] | Ratio [3] | further results |
| --- | --- | --- | --- | --- |
| FC(F)(F)c1nc2ccccc2n1CCCCOc1ccccc1 | – | > 20 µM | – | – |
| CCc1nc2ccccc2n1CCCCOc1ccncc1 | > 50 µM | > 20 µM | – | – |
| CCc1nc2ccc(OC)cc2n1CCCCOc1ccccc1 | 27 µM | 0.9 µM (≈ 0.292 µg/mL) | 30 | – |
| CCc1nc2ccccc2n1CCOc1ccccc1 | – | > 20 µM | – | – |
| CCc1nc2ccccc2n1CCCCOc1ccccc1C | 16 µM | 0.32 µM (≈ 0.0987 µg/mL) | 50 | – |
| CCc1nc2ccccc2n1CCCCOc1ccnc2ccccc12 | > 50 µM | > 20 µM | – | – |
| CCc1nc2cc(Cl)cnc2n1CCCCOc1ccccc1 | 38 µM | 6.1 µM (≈ 2.01 µg/mL) | 6.2 | – |
| CCc1nc2ccc(C)cc2n1CCCCNc1ccc(C)c(Br)c1 | 12 µM | 0.11 µM (≈ 0.044 µg/mL) | 109 | – |
| CCc1nc2ccccc2n1CCCCOc1ccc(N2CCOCC2)cc1 | 32 µM | > 20 µM | – | – |
| CCc1nc2ccc(C#N)cc2n1CCCCOc1ccccc1 | > 20 µM | > 20 µM | >20 | – |
| CCc1nc2ccccc2n1CCCCOCc1ccccc1 | 32 µM | 3.6 µM (≈ 1.11 µg/mL) | 8.9 | – |
| CCc1nc2ccccc2n1CCCCOc1ccc(C)c(Cl)c1 | 14 µM | 0.23 µM (≈ 0.0789 µg/mL) | 61 | – |
| CCc1nc2ccccc2n1CC1COc2ccccc2O1 (centres undefined) | – | > 20 µM | – | – |
| CCc1nc2ccccc2n1CCCCOc1cc(C)c(Cl)c([N+](=O)[O-])c1 | 18 µM | 7.9 µM (≈ 3.06 µg/mL) | 19 | – |
| CCc1nc2ccccc2n1CCCCOc1cccc(C)c1 | 19 µM | 0.42 µM (≈ 0.13 µg/mL) | 45 | – |
| CCc1nc2ccc(C)cc2n1CCCOc1ccc(C)cc1 | 15 µM | 0.27 µM (≈ 0.0833 µg/mL) | 56 | – |
| CCc1nc2cnc(C)cc2n1CCCCOc1ccccc1 | 71 µM | 1.5 µM (≈ 0.464 µg/mL) | 47 | – |
| CCc1nc2ccc(Cl)cc2n1CCCCOc1ccccc1 | 25 µM | 7.1 µM (≈ 2.33 µg/mL) | 3.5 | – |
| CCc1nc2ccc(C)cc2n1CCCOc1ccc(C)c(Cl)c1 | 17 µM | 0.22 µM (≈ 0.0754 µg/mL) | 77 | Activity [12]: inactive |
| CCc1cc2ccccc2n1CCCCNc1ccc(C)c(Br)c1 | – | > 20 µM | – | – |
| CCc1nc2ccccc2n1CCCCOc1ccc(Cl)cc1Cl | 23 µM | 1.8 µM (≈ 0.654 µg/mL) | 13 | – |
| CCc1nc2cc(Cl)ccc2n1CCCCOc1ccccc1 | 16 µM | 0.3 µM (≈ 0.0987 µg/mL) | 53 | solubility thermodynamic [4]: 0.67 mg/mL (≈ 2040 µM); permeability (MDCK): 3.6%; solubility thermodynamic [5]: < 0.001 mg/mL; fraction unbound at 4.5 h [13]: 0.004; solubility thermodynamic [6]: < 0.001 mg/mL; metabolised at 0.5 h, 2 µM [7]: 99.8%; metabolised at 0.5 h, 2 µM [8]: 99.7%; metabolised at 0.5 h, 2 µM [9]: 98.5% |
| CCc1nc2ccccc2n1CCCCOc1ccc(Cl)cc1C | 20 µM | 1.5 µM (≈ 0.514 µg/mL) | 2.3 | – |
